According to patent US7842856B2, “Herbicide resistance gene, compositions and methods” (The Board of Trustees of the University of Illinois, priority 2005, dated 2010):

Legend:
[1] = tested on: A. tuberculatus S (susceptible) parent; assay: Herbicide dose-response on whole plants, S parent; type: in vivo, Amaranthus tuberculatus (waterhemp); details: S line
[2] = tested on: Arabidopsis T1 seeds, PPX2L "SRS" plasmid; assay: T1 seed germination on herbicide-containing medium, PPX2L SRS plasmid; type: in vivo, Arabidopsis thaliana; details: for Number of Germinated Seedlings on Imazethapyr: approximately 1000 seeds
Method: (§1) Reverse transcription PCR (RT-PCR) products from resistant and sensitive biotypes were used as template for cloning the resistant and sensitive genes through PCR amplifications. These amplifications were performed using the ligation independent cloning (LIC) adapted oligonucleotide primers specific to PPX2L, P1 and P2, and cloned into the LIC site of a plant transformation vector, using techniques known to those skilled in the art. These primers used in these experiments were as follows: P1, […], SEQ ID NO:49; P2, […], SEQ ID NO:50; P3, […], SEQ ID NO:51; P4, […], SEQ ID NO:52; P5, […], SEQ ID NO:53; and P6, […], SEQ ID NO:54. These plant transformation vectors contained an imidazolinone tolerant Arabidopsis AHAS large subunit gene under the control of the actin promoter and octopine synthase terminator, which allowed selection on Pursuit (imazethapyr) for all transformants, especially for selection of lactofen […] transformants. For expression of the resistant and sensitive genes in Arabidopsis, the coding sequences for each resistant or sensitive gene were inserted after the parsley ubiquitin promoter and before the nopaline synthase terminator. Several clones each of susceptible and resistant PPX2L were obtained from different biotype isolates and each was sequenced.
In addition, a chimeric “SRS” gene (see SEQ ID NO:45), which has the 5′ end of the susceptible coding sequence up to the unique XhoI site, the internal XhoI to DraIII fragment of the resistant coding sequence containing the resistance mutation, and the 3′ end of the susceptible from the unique DraIII site to the stop codon, was produced by amplifying sensitive RT-PCR template with P1 and P3 as well as with P6 and P2. Resistant template was also amplified with P4 and P5. These amplicons were digested with XhoI and DraIII and purified, then ligated. The ligation reaction was cloned into the LIC site of the plant transformation vector, as above.
(§2) Three vector plasmids were constructed: VC-MBW101-1, containing the susceptible version of the PPX2L gene (SEQ ID NO:47); VC-MBW102-1, containing the resistant version of the PPX2L gene (SEQ ID NO:25); and VC-MBW103-1, containing the SRS version of the PPX2L gene (SEQ ID NO:45); All three of these plasmids were transformed into Agrobacterium tumefaciens. as follows:
(§3) For the transformation, 6-week-old Arabidopsis plants, which had just started flowering were immersed for 10 seconds into the above-described agrobacterial suspension which had previously been treated with 10 μl Silwett L77 (Crompton S. A., Osi Specialties, CH). The method is described in Clough and Bent. 1998. Plant J. 16:735-743.
(§4) These T1 generation seeds, which represented a collection of a few transformed seeds in a population of untransformed seeds, were sterilized by liquid sterilization (rinsing in a solution of 400 mL of ddH2O+100 mL of bleach+250 uL of 20% SDS, followed by rinsing in sterile distilled water).
(§5) These T1 seeds were put into 0.8% agarose and plated onto MS media with 1% sucrose, Cefotaxmine (500 ug/mL) and benomyl (2 ug/mL). For selection of transformants, these contained either 100 nM Pursuit (imazethapyr), 70 nM Cobra (lactofen) or 125 nM Cobra. Arabidopsis ecotype Columbia-0 (Co10) was also plated as a control on all types of plates and the imidazolinone tolerant mutant csr1-2 was plated on Pursuit plates as a positive control. The seeds were stratified on the plates for three days at 4° C.
(§6) The plates were then incubated in a Percival Scientific (Perry, Iowa) growth chamber at 21-22° C. and 15 hours of light for six days and scored for viable seedlings on the selective plates.
The numbers of seeds were the raw counts of actual seeds on the selection plates. The numbers of seedlings were the number of green seedlings found on each plate, indicative of resistance to the selective agent (lactofen or imazethapyr). If there were no seedlings, there were no resistant plants. […]

[3] = tested on: Arabidopsis Columbia-0 (untransformed control); assay: Seed germination on herbicide-containing medium, untransformed control; type: in vivo, Arabidopsis thaliana
Method: as §5, §6
(§7) The numbers of seeds were the raw counts of actual seeds on the selection plates. The numbers of seedlings were the number of green seedlings found on each plate, indicative of resistance to the selective agent (lactofen or imazethapyr). If there were no seedlings, there were no resistant plants. Only the “resistant” forms of PPX2L conferred lactofen tolerance, confirming that the isolated PPX2L coding sequence from the herbicide resistant waterhemp was sufficient to confer the PPO-inhibiting herbicide resistance phenotype on transgenic plants into which the plant expressible sequence was introduced. Plants obtained from the imazethapyr selection indicated the presence of transformed seeds with the sensitive form of PPX2L. Without wishing to be bound by any particular theory, the single seedling on transformation set 5 is believed to have been a stray resistant transformant.

[4] = tested on: Arabidopsis T1 seeds, PPX2L Resistant plasmid; assay: T1 seed germination on herbicide-containing medium, PPX2L Resistant plasmid; type: in vivo, Arabidopsis thaliana; details: for Number of Germinated Seedlings on Imazethapyr: approximately 1000 seeds
Method: as §1, §2, §3, §4, §5, §6, §7

[5] = tested on: Arabidopsis T1 seeds, PPX2L Susceptible plasmid; assay: T1 seed germination on herbicide-containing medium, PPX2L Susceptible plasmid; type: in vivo, Arabidopsis thaliana; details: for Number of Germinated Seedlings on Imazethapyr: approximately 1000 seeds
Method: as §1, §2, §3, §4, §5, §6, §7

O=C(O)c1cc(Oc2ccc(C(F)(F)F)cc2Cl)ccc1[N+](=O)[O-] [Acifluorfen, 5-{2-chloro-4-(trifluoromethyl)phenoxy}-2-nitrobezoic acid]
GR50 (growth reduction by 50%) S ([1]; 10 DAT): 1.6 g ai ha^−1

CCOC(=O)C(C)OC(=O)c1cc(Oc2ccc(C(F)(F)F)cc2Cl)ccc1[N+](=O)[O-] (racemic) [Lactofen, (±)-2-ethoxy-1-methyl-2-oxoethyl 5-{2-chloro-4-(trifluoromethyl)phenoxy}-2-nitrobenzoate]
Calculated Number of Germinated Seedlings per 1000 Seeds for both rates of Lactofen ([2]; transformation set 4-390): 9
Number of Germinated Seedlings on 125 nM Lactofen ([2]; transformation set 4-390, 1160 seeds plated): 6
Number of Germinated Seedlings on 70 nM lactofen ([2]; transformation set 4-390, 1176 seeds plated): 14
Calculated Number of Germinated Seedlings per 1000 Seeds for both rates of Lactofen ([2]; transformation set 4-414): 5
Number of Germinated Seedlings on 125 nM Lactofen ([2]; transformation set 4-414, 880 seeds plated): 2
Number of Germinated Seedlings on 70 nM lactofen ([2]; transformation set 4-414, 1036 seeds plated): 7
Calculated Number of Germinated Seedlings per 1000 Seeds for both rates of Lactofen [3]: 0
Number of Germinated Seedlings on 125 nM Lactofen ([3]; 600 seeds plated): 0
Number of Germinated Seedlings on 70 nM lactofen ([3]; 884 seeds plated, six days): 0
Calculated Number of Germinated Seedlings per 1000 Seeds for both rates of Lactofen ([4]; transformation set 1): 7
Number of Germinated Seedlings on 125 nM Lactofen ([4]; transformation set 1, 560 seeds plated): 4
Number of Germinated Seedlings on 70 nM lactofen ([4]; transformation set 1, 640 seeds plated): 4
Calculated Number of Germinated Seedlings per 1000 Seeds for both rates of Lactofen ([4]; transformation set 2): 3
Number of Germinated Seedlings on 125 nM Lactofen ([4]; transformation set 2, 1152 seeds plated): 4
Number of Germinated Seedlings on 70 nM lactofen ([4]; transformation set 2, 1276 seeds plated): 3
Calculated Number of Germinated Seedlings per 1000 Seeds for both rates of Lactofen ([4]; transformation set 3): 2
Number of Germinated Seedlings on 70 nM lactofen ([4]; transformation set 3, 980 seeds plated): 3
Number of Germinated Seedlings on 125 nM Lactofen ([4]; transformation set 3, 1664 seeds plated): 1
Calculated Number of Germinated Seedlings per 1000 Seeds for both rates of Lactofen ([5]; transformation set 4-291): 0
Number of Germinated Seedlings on 70 nM lactofen ([5]; transformation set 4-291, 500 seeds plated): 0
Number of Germinated Seedlings on 125 nM Lactofen ([5]; transformation set 4-291, 680 seeds plated): 0
Calculated Number of Germinated Seedlings per 1000 Seeds for both rates of Lactofen ([5]; transformation set 5): 1
Number of Germinated Seedlings on 70 nM lactofen ([5]; transformation set 5, 460 seeds plated): 1
Number of Germinated Seedlings on 125 nM Lactofen ([5]; transformation set 5, 764 seeds plated): 0
GR50 (growth reduction by 50%) S ([1]; 10 DAT): 0.2 g ai ha^−1
GR50 (growth reduction by 50%) S ([1]; 15 DAT): 0.4 g ai ha^−1

CCc1cnc(C2=NC(C)(C(C)C)C(=O)N2)c(C(=O)O)c1 (centres unmarked) [Imazethapyr]
Number of Germinated Seedlings on Imazethapyr ([2]; transformation set 4-390, 100 nM Pursuit): 10
Number of Germinated Seedlings on Imazethapyr ([2]; transformation set 4-414, 100 nM Pursuit): 11
Number of Germinated Seedlings on Imazethapyr ([3]; 100 nM Pursuit, approximately 1000 seeds): 0
Number of Germinated Seedlings on Imazethapyr ([4]; transformation set 1, 100 nM Pursuit): 9
Number of Germinated Seedlings on Imazethapyr ([4]; transformation set 2, 100 nM Pursuit): 9
Number of Germinated Seedlings on Imazethapyr ([4]; transformation set 3, 100 nM Pursuit): 6
Number of Germinated Seedlings on Imazethapyr ([5]; transformation set 4-291, 100 nM Pursuit): 4
Number of Germinated Seedlings on Imazethapyr ([5]; transformation set 5, 100 nM Pursuit): 12
